target: T1, Dipeptidase 1 (Sus scrofa, UniProt P22412); assay: Inhibitory activity against beta-lactamase renal dipeptidase
T1 sequence (P22412 whole entry): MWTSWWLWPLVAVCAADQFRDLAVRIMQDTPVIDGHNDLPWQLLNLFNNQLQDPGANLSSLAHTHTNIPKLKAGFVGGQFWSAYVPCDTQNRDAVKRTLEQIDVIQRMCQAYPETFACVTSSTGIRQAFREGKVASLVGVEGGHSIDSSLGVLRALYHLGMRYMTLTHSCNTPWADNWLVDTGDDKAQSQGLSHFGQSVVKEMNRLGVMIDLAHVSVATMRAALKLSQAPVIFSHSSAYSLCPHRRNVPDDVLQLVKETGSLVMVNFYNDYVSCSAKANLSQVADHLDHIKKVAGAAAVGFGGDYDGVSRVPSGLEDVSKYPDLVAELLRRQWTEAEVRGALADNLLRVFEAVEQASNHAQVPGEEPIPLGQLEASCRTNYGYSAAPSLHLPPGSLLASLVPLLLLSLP

Row | Structure (SMILES) | Ki [nM]
1 | C/C=C(\NC(=O)CCCCCCCCCC)C(=O)O | 19000
2 | C=C(NC(=O)C1CC1(C)C)C(=O)O (stereo not drawn) | 52000
3 | CC1(C)CC1C(=O)N/C(=C\CCCCCBr)C(=O)O (stereo not drawn) | 270
4 | CN(CCCCCC/C=C(\NC(=O)C1CC1(C)C)C(=O)O)CC(=O)O (stereo not drawn) | 400
5 | CC1(C)CC1C(=O)N/C(=C\C1CC1)C(=O)O (stereo not drawn) | 440
6 | CC1(C)CC1C(=O)N/C(=C\CCCCSc1ccccc1C(=O)O)C(=O)O (stereo not drawn) | 60
7 | C/C=C(\NC(=O)C1C(C)C1(C)C)C(=O)O (stereo not drawn) | 7200
8 | C/C=C(\NC(=O)CCCCCCCCC(=O)O)C(=O)O | 28000
9 | CC1(C)CC1C(=O)N/C(=C\CCCCC[N+](C)(C)CCO)C(=O)[O-] (stereo not drawn) | 910
10 | CN(CCCCC/C=C(\NC(=O)C1CC1(C)C)C(=O)O)CC(=O)O (stereo not drawn) | 290
11 | C/C=C(\NC(=O)[C@@H]1C[C@H]1C(C)(C)C)C(=O)O | 6500
12 | CN(CCCC/C=C(\NC(=O)C1CC1(C)C)C(=O)O)CC(=O)O (stereo not drawn) | 560
13 | CC1(C)CC1C(=O)N/C(=C\CCCCSc1ncccc1C(=O)O)C(=O)O (stereo not drawn) | 40
14 | CC1(C)CC1C(=O)N/C(=C\CCCCC(=O)O)C(=O)O (stereo not drawn) | 58
15 | C/C=C(\NC(=O)[C@@H]1C[C@H]1c1ccccc1)C(=O)O | 5000
16 | CC1(C)CC1C(=O)N/C(=C\CCCCCNC=N)C(=O)O (stereo not drawn) | 780
17 | C/C=C(\NC(=O)[C@@H]1C[C@H]1CC)C(=O)O | 1600
18 | C/C=C(\NC(=O)CC1CCCC1)C(=O)O | 9800
19 | CC1(C)CC1C(=O)N/C(=C\C1CCCCC1)C(=O)O (stereo not drawn) | 400
20 | CC1(C)C[C@@H]1C(=O)N/C(=C\CCCCSC[C@H](N)C(=O)O)C(=O)O (stereo in doubt; 174) [CILASTATIN] | 210
21 | C=CCNCCCCC/C=C(\NC(=O)C1CC1(C)C)C(=O)O (stereo not drawn) | 870
22 | CC1(C)CC1C(=O)N/C(=C\CCCCCSCC(N)C(=O)O)C(=O)O (stereo not drawn) | 230

Row | Structure (SMILES) | Ki [nM]
23 | C/C=C(\NC(=O)C1CC(C)(C)C1)C(=O)O | 11200
24 | C/C=C(\NC(=O)C1CC12CC2)C(=O)O (stereo not drawn) | 1600
25 | CCC/C=C(\NC(=O)C1CC1(Br)Br)C(=O)O (stereo not drawn) | 15
26 | C/C=C(\NC(=O)[C@H]1[C@H](C)[C@@H]1C)C(=O)O | 4600
27 | C/C=C(\NC(=O)C1CC1(Cl)Cl)C(=O)O (stereo not drawn) | 80
28 | C/C=C(\NC(=O)C1CC1(Br)Br)C(=O)O (stereo not drawn) | 30
29 | CC1(C)CC1C(=O)N/C(=C\CCCCCCC[N+](C)(C)C)C(=O)[O-] (stereo not drawn) | 570
30 | CCCCCCCCC/C=C(\NC(=O)C1CC1(C)C)C(=O)O (stereo not drawn) | 110
31 | CC(NCCCCC/C=C(\NC(=O)[C@H]1CC1(C)C)C(=O)O)P(=O)(O)O (stereo partly drawn) | 160
32 | CC1(C)CC1C(=O)N/C(=C\CCCCCNCCP(=O)(O)O)C(=O)O (stereo not drawn) | 580
33 | CC1(C)CC1C(=O)N/C(=C\CCCSCP(=O)(O)O)C(=O)O (stereo not drawn) | 220
34 | CC1(C)CC1C(=O)N/C(=C\CCCSCC(N)C(=O)O)C(=O)O (stereo not drawn) | 270
35 | CC1(C)CC1C(=O)N/C(=C\CCCCSCC(=O)O)C(=O)O (stereo not drawn) | 130
36 | C/C=C(\NC(=O)C1CCC1C)C(=O)O (stereo not drawn) | 4700
37 | CC1(C)CC1C(=O)N/C(=C\CCCCCCCBr)C(=O)O (stereo not drawn) | 110
38 | CC1(C)CC1C(=O)N/C(=C\CCCCSc1ncccc1O)C(=O)O (stereo not drawn) | 20
39 | CC1(C)CC1C(=O)N/C(=C\CCCCCC#N)C(=O)O (stereo not drawn) | 82
40 | CC1(C)CC1C(=O)N/C(=C\CCCCCCC[N+](C)(C)Cc1ccccc1)C(=O)[O-] (stereo not drawn) | 450
41 | COCCCCC/C=C(\NC(=O)C1CC1(C)C)C(=O)O (stereo not drawn) | 180
42 | C=CCCCCCCCCC(=O)N/C(=C\C)C(=O)O | 34000
43 | C[N+](C)(C)CCCCC/C=C(\NC(=O)C1CC1(Cl)Cl)C(=O)O (stereo not drawn) | 180
44 | CC1(C)CC1C(=O)N/C(=C\CCCSc1ncccc1O)C(=O)O (stereo not drawn) | 130

Row | Structure (SMILES) | Ki [nM]
45 | C/C=C(\NC(=O)CCCCCNC(=O)CC)C(=O)O | 41000
46 | CC1(C)CC1C(=O)N/C(=C\CCCCCO)C(=O)O (stereo not drawn) | 230
47 | CC(=O)NCCCCC/C=C(\NC(=O)C1CC1(C)C)C(=O)O (stereo not drawn) | 230
48 | CC(C)CC(=O)N/C(=C\CCC(=O)O)C(=O)O | 2700
49 | C/C=C(\NC(=O)CCCCCCCCCCC)C(=O)O | 35000
50 | COC(=O)CSCCCCC/C=C(\NC(=O)C1CC1(C)C)C(=O)O (stereo not drawn) | 200
51 | CC1(C)CC1C(=O)N/C(=C\CCCCCCBr)C(=O)O (stereo not drawn) | 160
52 | C/C=C(\NC(=O)C1CCCCC1)C(=O)O | 15000
53 | C/C=C(\NC(=O)[C@H]1[C@@H]2CCCC[C@@H]21)C(=O)O | 4200
54 | C/C=C(\NC(=O)CC(C)CCCC(C)(C)O)C(=O)O (stereo not drawn) | 67000
55 | CC1(C)CC1C(=O)N/C(=C\CCCCS(=O)(=O)O)C(=O)O (stereo not drawn) | 87
56 | C/C=C(\NC(=O)[C@@H]1C[C@@H]1C)C(=O)O | 12000
57 | C/C=C(\NC(=O)CCCCC(=O)OCC)C(=O)O | 18000
58 | CC1(C)CC1C(=O)N/C(=C\CCCCCSCC(N)=O)C(=O)O (stereo not drawn) | 250
59 | C/C=C(\NC(=O)CCCC(=O)OCC)C(=O)O | 39000
60 | CC1(C)CC1C(=O)N/C(=C\CCCBr)C(=O)O (stereo not drawn) | 380
61 | CC(=O)NC(CSCCCC/C=C(\NC(=O)[C@H]1CC1(C)C)C(=O)O)C(=O)O (stereo partly drawn) | 60
62 | C/C=C(\NC(=O)CSCC)C(=O)O | 31000
63 | C/C=C(\NC(=O)CCCc1cccs1)C(=O)O | 10000
64 | CC1(C)CC1C(=O)N/C(=C\CCCCC#N)C(=O)O (stereo not drawn) | 210
65 | CC1(C)CC1C(=O)N/C(=C\CCCCSCC(=O)C(=O)O)C(=O)O (stereo not drawn) | 160

Continued, values first:

Row | Ki [nM] | Structure (SMILES)
66 | 860 | CCN(CC)CCCCC/C=C(\NC(=O)C1CC1(C)C)C(=O)O (stereo not drawn)
67 | 300 | CC1(C)CC1C(=O)N/C(=C\CCCCCNC(N)=O)C(=O)O (stereo not drawn)
68 | 32000 | C/C=C(\NC(=O)CCCCCCCC)C(=O)O
69 | 3450 | CN(C)CCCC/C=C(\NC(=O)C1CC1(C)C)C(=O)O (stereo not drawn)
70 | 25000 | C/C=C(\NC(=O)CC1CCCCC1)C(=O)O
71 | 2100 | C/C=C(\NC(=O)C1CC1(F)F)C(=O)O (stereo not drawn)
72 | 96 | CCCCCCC/C=C(\NC(=O)C1CC1(C)C)C(=O)O (stereo not drawn)
73 | 102000 | C/C=C(\NC(=O)CCCNC(C)=O)C(=O)O
74 | 20000 | C/C=C(\NC(=O)CC(C)(C)C)C(=O)O
75 | 280 | COC(=O)CSCCC/C=C(\NC(=O)C1CC1(C)C)C(=O)O (stereo not drawn)
76 | 11200 | CCCCC/C=C(/NC(=O)C1CC1(C)C)C(=O)O (stereo not drawn)
77 | 150 | CSCCCCC/C=C(\NC(=O)C1CC1(C)C)C(=O)O (stereo not drawn)
78 | 650 | CC1(C)C[C@@H]1C(=O)N/C(=C\CCCCC[N+](C)(C)C)C(=O)[O-]
79 | 1700 | C/C=C(\NC(=O)[C@@H]1C[C@H]1C)C(=O)O
80 | 25000 | C/C=C(\NC(=O)CCCCC#N)C(=O)O
81 | 19000 | C/C=C(\NC(=O)CCCCCBr)C(=O)O
82 | 230 | C=CCC/C=C(\NC(=O)C1CC1(C)C)C(=O)O (stereo not drawn)
83 | 840 | CC1(C)CC1C(=O)N/C(=C\CCCCCNC1=NCCN1)C(=O)O (stereo not drawn)
84 | 180 | CC1(C)C[C@@H]1C(=O)N/C(=C\CCCCCNC(C)(C)P(=O)(O)O)C(=O)O
85 | 110 | CCCCCCCC/C=C(\NC(=O)C1CC1(C)C)C(=O)O (stereo not drawn)
86 | 160 | CCCCCC/C=C(\NC(=O)C1CC1(C)C)C(=O)O (stereo not drawn)
87 | 10000 | C/C=C(\NC(=O)CCCCC(=O)N/C(=C\C)C(=O)O)C(=O)O
88 | 14000 | C/C=C(\NC(=O)CCC(C)C)C(=O)O
89 | 70000 | C/C=C(\NC(=O)c1ccccc1)C(=O)O
90 | 190 | CC1(C)C[C@@H]1C(=O)N/C(=C\CCCCSC[C@H](N)C(=O)O)C(=O)O (stereo in doubt; 175) [CILASTATIN]
91 | 170 | CC1(C)CC1C(=O)N/C(=C\CCCCCS)C(=O)O (stereo not drawn)
92 | 3300 | C/C=C(\NC(=O)C(C)C(C)C)C(=O)O (stereo not drawn)

Row | Ki [nM] | Structure (SMILES)
93 | 280 | CC(NCCCCC/C=C(\NC(=O)C1CC1(C)C)C(=O)O)P(=O)(O)O (stereo not drawn)
94 | 1280 | CN(C)CCCCC/C=C(\NC(=O)C1CC1(C)C)C(=O)O (stereo not drawn)
95 | 740 | C#CCNCCCCC/C=C(\NC(=O)C1CC1(C)C)C(=O)O (stereo not drawn)
96 | 44 | CCOC(=S)SCCCCC/C=C(\NC(=O)C1CC1(C)C)C(=O)O (stereo not drawn)
97 | 400 | CC1(C)CC1C(=O)N/C(=C\CCCCCNCP(=O)(O)O)C(=O)O (stereo not drawn)
98 | 28000 | C/C=C(\NC(=O)C=C(C)C)C(=O)O
99 | 164000 | C/C=C(\NC(=O)C1(C)CC1(Cl)Cl)C(=O)O (stereo not drawn)
100 | 150 | CNC(CSCCCC/C=C(\NC(=O)[C@H]1CC1(C)C)C(=O)O)C(=O)O (stereo partly drawn)
101 | 160 | COCCCC/C=C(\NC(=O)C1CC1(C)C)C(=O)O (stereo not drawn)
102 | 810 | CC1(C)CC1C(=O)N/C(=C\CCCCCCCN)C(=O)O (stereo not drawn)
103 | 100 | CC1(C)CC1C(=O)N/C(=C\CCCCSc1ccccc1)C(=O)O (stereo not drawn)
104 | 140 | CC1(C)CC1C(=O)N/C(=C\CCC(=O)O)C(=O)O (stereo not drawn)
105 | 8800 | CCCCC/C=C(\NC(=O)[C@@H]1CC1(C)C)C(=O)O
106 | 52000 | C/C=C(\NC(=O)CCCNC(=O)CC(C)C)C(=O)O
107 | 520 | CN(C)CCCCCCC/C=C(\NC(=O)C1CC1(C)C)C(=O)O (stereo not drawn)
108 | 110 | CC1(C)C[C@@H]1C(=O)N/C(=C\CCCCSC[C@H](N)C(=O)O)C(=O)O (stereo in doubt; 176) [CILASTATIN]
109 | 1000 | CC1(C)CC1C(=O)N/C(=C\CCCCCN)C(=O)O (stereo not drawn)
110 | 1090 | CC1(C)CC1C(=O)N/C(=C\CCCCC[n+]1ccccc1)C(=O)[O-] (stereo not drawn)
111 | 3000 | C/C=C(\NC(=O)C1CC1)C(=O)O
112 | 12000 | C/C=C(\NC(=O)C1CCCCCC1)C(=O)O
113 | 4000 | C/C=C(\NC(=O)CC(C)CCCC(C)C)C(=O)O (stereo not drawn)
114 | 22000 | C/C=C(\NC(=O)c1cccc(Cl)c1)C(=O)O
115 | 92 | CC1(C)CC1C(=O)N/C(=C\CCCCCC/C=C(\NC(=O)C1CC1(C)C)C(=O)O)C(=O)O (stereo not drawn)
116 | 150 | CC1(C)CC1C(=O)N/C(=C\CCCCBr)C(=O)O (stereo not drawn)
117 | 240 | CC1(C)CC1C(=O)N/C(=C\CC(F)(F)F)C(=O)O (stereo not drawn)
118 | 60 | CCCCC/C=C(\NC(=O)C1CC1(Cl)Cl)C(=O)O (stereo not drawn)

— ChEMBL document CHEMBL1123761, “Inhibition of the mammalian beta-lactamase renal dipeptidase (dehydropeptidase-I) by (Z)-2-(acylamino)-3-substituted-propenoic acids” (J Med Chem, 1987)
